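The compound was tested at five concentrations on cells cultured in 96-well plates, with a 48-hour exposure period. GI50 marks 50% less growth.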 Calls of active or inactive are those of the source. Cut-off read from the data, not from the text of the source: active = GI50 up to about 1.1 µM and inactive = higher.
Legend:
Experiment in all cases: NCI anticancer screen, dose series, 48 h
A549 = tested on: A549
HOP-92 = tested on: HOP-92
IGROV-1 = tested on: IGROV-1
KM12 = tested on: KM12
LOX IMVI = tested on: LOX IMVI
M14 = tested on: M14
NCI-H226 = tested on: NCI-H226
NCI-H460 = tested on: NCI-H460
RPMI-8226 = tested on: RPMI-8226
SF-295 = tested on: SF-295
SK-MEL-5 = tested on: SK-MEL-5
SK-OV-3 = tested on: SK-OV-3
SN12C = tested on: SN12C
SR = tested on: SR
SW-620 = tested on: SW-620
UACC-62 = tested on: UACC-62
UO-31 = tested on: UO-31

SMILES | GI50 (A549) | GI50 (HOP-92) | GI50 (IGROV-1) | GI50 (KM12) | GI50 (LOX IMVI) | GI50 (M14) | GI50 (NCI-H226) | GI50 (NCI-H460) | GI50 (RPMI-8226) | GI50 (SF-295) | GI50 (SK-MEL-5) | GI50 (SK-OV-3) | GI50 (SN12C) | GI50 (SR) | GI50 (SW-620) | GI50 (UACC-62) | GI50 (UO-31)
O=C(OCc1ccccc1)n1cccc1 | > 100 µM (inactive) | > 100 µM (inactive) | > 100 µM (inactive) | > 100 µM (inactive) | > 100 µM (inactive) | > 100 µM (inactive) | > 100 µM (inactive) | > 100 µM (inactive) | 54.6 µM (inactive) | > 100 µM (inactive) | > 100 µM (inactive) | > 100 µM (inactive) | > 100 µM (inactive) | 88.3 µM (inactive) | > 100 µM (inactive) | > 100 µM (inactive) | 46.3 µM (inactive)
Nc1c(C(=O)Nc2ccccc2O)[n+]([O-])c2ccccc2[n+]1[O-] | 36.1 µM (inactive) | > 100 µM (inactive) | 81.5 µM (inactive) | 79.3 µM (inactive) | – | > 100 µM (inactive) | > 100 µM (inactive) | 27 µM (inactive) | 22.3 µM (inactive) | 58.9 µM (inactive) | 14.7 µM (inactive) | > 100 µM (inactive) | 63.2 µM (inactive) | 44.3 µM (inactive) | 21 µM (inactive) | – | 37.5 µM (inactive)
O=C(CSc1nnc(-c2ccc(/N=C\c3ccc(Cl)cc3)cc2)o1)Nc1ccc([N+](=O)[O-])cc1 | 39.9 µM (inactive) | – | – | > 10 µM (inactive) | 10.6 µM (inactive) | 19.4 µM (inactive) | 21.9 µM (inactive) | 36.4 µM (inactive) | 2.45 µM (inactive) | 30.2 µM (inactive) | 18.4 µM (inactive) | 35.9 µM (inactive) | 21.7 µM (inactive) | 19 µM (inactive) | 17.1 µM (inactive) | 18.9 µM (inactive) | 18.4 µM (inactive)
CCC12C[N+]3([O-])CCc4c([nH]c5ccccc45)C(C(=O)OC)(c4cc5c(cc4OC)N(C)C4C(O)(C(=O)OC)C(OC(C)=O)C6(CC)C=CCN7CCC54C76)CC(C3)C1O2 (stereo not given) | 0.826 µM (active) | 0.594 µM (active) | 0.968 µM (active) | 0.337 µM (active) | 1.09 µM (active) | 2.17 µM (inactive) | – | 0.424 µM (active) | 0.331 µM (active) | 0.291 µM (active) | 0.288 µM (active) | 0.336 µM (active) | 2.33 µM (inactive) | – | 0.598 µM (active) | 0.323 µM (active) | 3.17 µM (inactive)
O=C(c1ccccc1)C(c1ccccc1)C1(O)C(=O)Nc2ccc(Br)cc21 (stereo not given) | > 100 µM (inactive) | 73.5 µM (inactive) | 56.4 µM (inactive) | 95.3 µM (inactive) | – | 30.5 µM (inactive) | 40.5 µM (inactive) | > 100 µM (inactive) | 17.9 µM (inactive) | > 100 µM (inactive) | – | > 100 µM (inactive) | 35.8 µM (inactive) | 18.7 µM (inactive) | 72.1 µM (inactive) | 20.1 µM (inactive) | 63.8 µM (inactive)
Cc1c(C(=O)C/C(=N/NC(=O)C[N+](C)(C)C)C(=O)Nc2ccc(Cl)cc2)[n+]([O-])c2ccccc2[n+]1[O-] | > 100 µM (inactive) | > 100 µM (inactive) | > 100 µM (inactive) | > 100 µM (inactive) | > 100 µM (inactive) | > 100 µM (inactive) | > 100 µM (inactive) | > 100 µM (inactive) | > 100 µM (inactive) | > 100 µM (inactive) | > 100 µM (inactive) | – | > 100 µM (inactive) | > 100 µM (inactive) | > 100 µM (inactive) | > 100 µM (inactive) | > 100 µM (inactive)
CN(C)C(=S)Nc1nnc(NC23CC4CC(CC(C4)C2)C3)s1.[O-][Cl+3]([O-])([O-])O | 12.4 µM (inactive) | – | 30.1 µM (inactive) | 18.7 µM (inactive) | 17.5 µM (inactive) | 16 µM (inactive) | 19.4 µM (inactive) | 12.6 µM (inactive) | 16 µM (inactive) | 13.8 µM (inactive) | 0.1 µM (active) | 43.8 µM (inactive) | 15.3 µM (inactive) | 15.9 µM (inactive) | 16.7 µM (inactive) | 16.5 µM (inactive) | 12.4 µM (inactive)
O=C(c1nc2ccc(Cl)cc2nc1O)C(O)c1ccc2c(c1)OCO2 (stereo not given) | > 100 µM (inactive) | > 100 µM (inactive) | > 100 µM (inactive) | 63.7 µM (inactive) | 98.9 µM (inactive) | > 100 µM (inactive) | > 100 µM (inactive) | > 100 µM (inactive) | 7.4 µM (inactive) | > 100 µM (inactive) | – | > 100 µM (inactive) | – | – | > 100 µM (inactive) | 84.5 µM (inactive) | > 100 µM (inactive)
CSc1nc2c(nc(N)n2C2OC(CO)C(O)C(O)C2O)c(=O)[nH]1 (stereo not given) | > 100 µM (inactive) | > 100 µM (inactive) | > 100 µM (inactive) | > 100 µM (inactive) | > 100 µM (inactive) | > 100 µM (inactive) | > 100 µM (inactive) | > 100 µM (inactive) | – | > 100 µM (inactive) | > 100 µM (inactive) | > 100 µM (inactive) | > 100 µM (inactive) | > 100 µM (inactive) | > 100 µM (inactive) | > 100 µM (inactive) | > 100 µM (inactive)
Cc1cc(Cl)ccc1NC(=O)C(=O)C(C(=O)c1ccc2ccccc2c1)C1OC(=O)c2ccccc21 (stereo not given) | 21.3 µM (inactive) | 14.3 µM (inactive) | 20.8 µM (inactive) | 17 µM (inactive) | 13.2 µM (inactive) | 16 µM (inactive) | 2.3 µM (inactive) | 6.93 µM (inactive) | 3.1 µM (inactive) | – | 12.7 µM (inactive) | 15.7 µM (inactive) | 15.7 µM (inactive) | – | 7.87 µM (inactive) | 8.67 µM (inactive) | 12.9 µM (inactive)
CC1=C2C(=CC(C)(C)C2O)C(=O)C(C)(O)C12CC2 (stereo not given) | 0.0135 µM (active) | 0.0167 µM (active) | 0.0153 µM (active) | 0.0158 µM (active) | 0.00478 µM (active) | 0.0158 µM (active) | 0.033 µM (active) | 0.0018 µM (active) | – | 0.00724 µM (active) | 0.00567 µM (active) | 0.0262 µM (active) | 0.0189 µM (active) | 0.00249 µM (active) | 0.00305 µM (active) | 0.0116 µM (active) | 0.0127 µM (active)
COc1ccccc1-c1cc(=O)c2cc(C)c(C)c(C(=O)O)c2o1 | > 100 µM (inactive) | > 100 µM (inactive) | > 100 µM (inactive) | > 100 µM (inactive) | > 100 µM (inactive) | > 100 µM (inactive) | – | > 100 µM (inactive) | > 100 µM (inactive) | > 100 µM (inactive) | > 100 µM (inactive) | > 100 µM (inactive) | > 100 µM (inactive) | – | > 100 µM (inactive) | > 100 µM (inactive) | > 100 µM (inactive)
Cc1cc(=O)oc2cc(OCc3nc4ccccc4c(=O)[nH]3)ccc12 | > 100 µM (inactive) | > 100 µM (inactive) | > 100 µM (inactive) | > 100 µM (inactive) | > 100 µM (inactive) | > 100 µM (inactive) | > 100 µM (inactive) | > 100 µM (inactive) | > 100 µM (inactive) | > 100 µM (inactive) | > 100 µM (inactive) | > 100 µM (inactive) | > 100 µM (inactive) | – | > 100 µM (inactive) | > 100 µM (inactive) | –
COC(=O)/C(=N\NC(=O)c1ccccc1O)C(C#N)c1ccc(Cl)cc1 (stereo not given) | 3.85 µM (inactive) | 89.7 µM (inactive) | 7.4 µM (inactive) | 43.6 µM (inactive) | – | 40.6 µM (inactive) | – | 39 µM (inactive) | – | 30.5 µM (inactive) | 16.7 µM (inactive) | – | 45.5 µM (inactive) | 37.3 µM (inactive) | 44.5 µM (inactive) | 3.69 µM (inactive) | 16.7 µM (inactive)
O=C(CSc1nnc(-c2ccc(/N=C\c3ccc(Cl)cc3)cc2)o1)Nc1cccc([N+](=O)[O-])c1 | > 100 µM (inactive) | – | – | > 100 µM (inactive) | > 100 µM (inactive) | > 100 µM (inactive) | > 100 µM (inactive) | > 100 µM (inactive) | > 100 µM (inactive) | > 100 µM (inactive) | > 100 µM (inactive) | > 100 µM (inactive) | > 100 µM (inactive) | > 100 µM (inactive) | > 100 µM (inactive) | > 100 µM (inactive) | > 100 µM (inactive)
CCc1c(C#N)c(=O)[nH]c(=O)n1CCN1CCN(C(=O)NCCCCCCNC(=O)N2CCN(CCn3c(CC)c(C#N)c(=O)[nH]c3=O)CC2)CC1 | > 100 µM (inactive) | – | > 100 µM (inactive) | – | > 100 µM (inactive) | > 100 µM (inactive) | – | > 100 µM (inactive) | > 100 µM (inactive) | > 100 µM (inactive) | > 100 µM (inactive) | > 100 µM (inactive) | > 100 µM (inactive) | – | > 100 µM (inactive) | > 100 µM (inactive) | –
COc1cc(/C=C2\NC(=O)C3Cc4c(OC)c(C)c(OC)c(OC)c4C2N3C)c(OC)c(C)c1OC (stereo not given) | > 100 µM (inactive) | > 100 µM (inactive) | > 100 µM (inactive) | > 100 µM (inactive) | > 100 µM (inactive) | > 100 µM (inactive) | > 100 µM (inactive) | – | – | > 100 µM (inactive) | > 100 µM (inactive) | > 100 µM (inactive) | > 100 µM (inactive) | > 100 µM (inactive) | > 10 µM (inactive) | > 100 µM (inactive) | > 100 µM (inactive)

From ChEMBL document CHEMBL1201862, “PubChem BioAssay data set” (2004)
